Test [1] has as its target Sodium channel protein type 5 subunit alpha (Homo sapiens, UniProt Q14524). Kind of test: Modulation of human Nav1.5 by automated patch clamp electrophysiology assay. On the technique in general: The patch-clamp technique gives a direct electrical read-out from membranes.
Test [2] has as its target Sodium channel protein type 9 subunit alpha (Homo sapiens, UniProt Q15858). Kind of test: Modulation of human Nav1.7 by automated patch clamp electrophysiology assay.
Test [3] has as its target Sodium channel protein type 4 subunit alpha (Homo sapiens, UniProt P35499). Kind of test: Modulation of human Nav1.4 by automated patch clamp electrophysiology assay.
Test [4] has as its target Sodium channel protein type 3 subunit alpha (Homo sapiens, UniProt Q9NY46). Description: Modulation of human Nav1.3 by automated patch clamp electrophysiology assay.

Sodium channel protein type 9 subunit alpha, sequence (Q15858 whole entry): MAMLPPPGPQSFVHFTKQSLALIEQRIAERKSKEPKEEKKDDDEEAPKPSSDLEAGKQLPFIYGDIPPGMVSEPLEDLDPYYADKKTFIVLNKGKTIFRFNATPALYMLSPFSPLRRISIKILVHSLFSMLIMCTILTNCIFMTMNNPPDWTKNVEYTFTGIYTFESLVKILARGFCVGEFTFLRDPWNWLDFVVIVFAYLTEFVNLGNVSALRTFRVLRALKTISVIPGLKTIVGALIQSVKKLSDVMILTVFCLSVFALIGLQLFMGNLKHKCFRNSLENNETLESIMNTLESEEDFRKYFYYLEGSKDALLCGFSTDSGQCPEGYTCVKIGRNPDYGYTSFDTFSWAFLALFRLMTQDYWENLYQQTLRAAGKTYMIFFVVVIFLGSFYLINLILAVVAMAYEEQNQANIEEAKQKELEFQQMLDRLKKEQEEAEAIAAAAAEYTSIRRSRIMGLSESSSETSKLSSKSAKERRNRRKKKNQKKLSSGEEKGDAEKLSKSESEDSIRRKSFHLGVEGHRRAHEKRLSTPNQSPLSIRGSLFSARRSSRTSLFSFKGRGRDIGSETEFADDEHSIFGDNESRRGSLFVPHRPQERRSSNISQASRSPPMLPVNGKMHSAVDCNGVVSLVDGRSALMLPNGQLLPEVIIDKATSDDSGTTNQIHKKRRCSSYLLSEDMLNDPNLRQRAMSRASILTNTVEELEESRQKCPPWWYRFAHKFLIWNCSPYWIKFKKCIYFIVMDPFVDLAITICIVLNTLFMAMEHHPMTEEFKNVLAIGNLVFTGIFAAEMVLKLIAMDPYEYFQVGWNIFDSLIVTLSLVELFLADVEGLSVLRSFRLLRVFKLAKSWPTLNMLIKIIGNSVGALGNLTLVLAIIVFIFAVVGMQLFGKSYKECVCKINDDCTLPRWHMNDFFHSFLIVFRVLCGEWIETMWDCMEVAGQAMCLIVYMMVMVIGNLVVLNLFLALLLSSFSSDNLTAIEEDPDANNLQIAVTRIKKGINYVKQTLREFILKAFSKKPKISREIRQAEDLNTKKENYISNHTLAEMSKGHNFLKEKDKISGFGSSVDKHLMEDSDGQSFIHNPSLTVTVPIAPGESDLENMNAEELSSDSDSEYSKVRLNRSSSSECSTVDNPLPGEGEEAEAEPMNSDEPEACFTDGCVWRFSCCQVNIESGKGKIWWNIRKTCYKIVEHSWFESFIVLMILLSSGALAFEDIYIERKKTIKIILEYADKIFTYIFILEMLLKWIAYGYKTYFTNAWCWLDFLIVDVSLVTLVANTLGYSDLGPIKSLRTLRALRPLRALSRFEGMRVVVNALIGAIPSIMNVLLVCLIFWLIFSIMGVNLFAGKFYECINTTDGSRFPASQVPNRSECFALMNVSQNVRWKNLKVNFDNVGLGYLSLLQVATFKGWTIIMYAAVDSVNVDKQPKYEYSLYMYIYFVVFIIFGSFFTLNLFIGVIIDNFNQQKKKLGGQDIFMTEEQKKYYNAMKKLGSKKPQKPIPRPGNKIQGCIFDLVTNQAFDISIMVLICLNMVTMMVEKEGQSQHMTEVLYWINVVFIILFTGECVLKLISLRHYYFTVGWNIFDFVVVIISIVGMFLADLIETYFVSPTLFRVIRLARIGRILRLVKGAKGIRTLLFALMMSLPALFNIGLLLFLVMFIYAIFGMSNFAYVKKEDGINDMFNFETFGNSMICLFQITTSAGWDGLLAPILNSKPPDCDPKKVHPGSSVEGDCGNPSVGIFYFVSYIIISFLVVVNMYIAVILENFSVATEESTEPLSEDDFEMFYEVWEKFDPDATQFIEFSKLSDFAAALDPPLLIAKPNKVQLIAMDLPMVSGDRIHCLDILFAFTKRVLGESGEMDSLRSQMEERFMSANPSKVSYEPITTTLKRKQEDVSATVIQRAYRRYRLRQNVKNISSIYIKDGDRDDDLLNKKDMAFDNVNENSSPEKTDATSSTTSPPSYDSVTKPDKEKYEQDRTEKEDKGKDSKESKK
Sodium channel protein type 4 subunit alpha, sequence (P35499 whole entry): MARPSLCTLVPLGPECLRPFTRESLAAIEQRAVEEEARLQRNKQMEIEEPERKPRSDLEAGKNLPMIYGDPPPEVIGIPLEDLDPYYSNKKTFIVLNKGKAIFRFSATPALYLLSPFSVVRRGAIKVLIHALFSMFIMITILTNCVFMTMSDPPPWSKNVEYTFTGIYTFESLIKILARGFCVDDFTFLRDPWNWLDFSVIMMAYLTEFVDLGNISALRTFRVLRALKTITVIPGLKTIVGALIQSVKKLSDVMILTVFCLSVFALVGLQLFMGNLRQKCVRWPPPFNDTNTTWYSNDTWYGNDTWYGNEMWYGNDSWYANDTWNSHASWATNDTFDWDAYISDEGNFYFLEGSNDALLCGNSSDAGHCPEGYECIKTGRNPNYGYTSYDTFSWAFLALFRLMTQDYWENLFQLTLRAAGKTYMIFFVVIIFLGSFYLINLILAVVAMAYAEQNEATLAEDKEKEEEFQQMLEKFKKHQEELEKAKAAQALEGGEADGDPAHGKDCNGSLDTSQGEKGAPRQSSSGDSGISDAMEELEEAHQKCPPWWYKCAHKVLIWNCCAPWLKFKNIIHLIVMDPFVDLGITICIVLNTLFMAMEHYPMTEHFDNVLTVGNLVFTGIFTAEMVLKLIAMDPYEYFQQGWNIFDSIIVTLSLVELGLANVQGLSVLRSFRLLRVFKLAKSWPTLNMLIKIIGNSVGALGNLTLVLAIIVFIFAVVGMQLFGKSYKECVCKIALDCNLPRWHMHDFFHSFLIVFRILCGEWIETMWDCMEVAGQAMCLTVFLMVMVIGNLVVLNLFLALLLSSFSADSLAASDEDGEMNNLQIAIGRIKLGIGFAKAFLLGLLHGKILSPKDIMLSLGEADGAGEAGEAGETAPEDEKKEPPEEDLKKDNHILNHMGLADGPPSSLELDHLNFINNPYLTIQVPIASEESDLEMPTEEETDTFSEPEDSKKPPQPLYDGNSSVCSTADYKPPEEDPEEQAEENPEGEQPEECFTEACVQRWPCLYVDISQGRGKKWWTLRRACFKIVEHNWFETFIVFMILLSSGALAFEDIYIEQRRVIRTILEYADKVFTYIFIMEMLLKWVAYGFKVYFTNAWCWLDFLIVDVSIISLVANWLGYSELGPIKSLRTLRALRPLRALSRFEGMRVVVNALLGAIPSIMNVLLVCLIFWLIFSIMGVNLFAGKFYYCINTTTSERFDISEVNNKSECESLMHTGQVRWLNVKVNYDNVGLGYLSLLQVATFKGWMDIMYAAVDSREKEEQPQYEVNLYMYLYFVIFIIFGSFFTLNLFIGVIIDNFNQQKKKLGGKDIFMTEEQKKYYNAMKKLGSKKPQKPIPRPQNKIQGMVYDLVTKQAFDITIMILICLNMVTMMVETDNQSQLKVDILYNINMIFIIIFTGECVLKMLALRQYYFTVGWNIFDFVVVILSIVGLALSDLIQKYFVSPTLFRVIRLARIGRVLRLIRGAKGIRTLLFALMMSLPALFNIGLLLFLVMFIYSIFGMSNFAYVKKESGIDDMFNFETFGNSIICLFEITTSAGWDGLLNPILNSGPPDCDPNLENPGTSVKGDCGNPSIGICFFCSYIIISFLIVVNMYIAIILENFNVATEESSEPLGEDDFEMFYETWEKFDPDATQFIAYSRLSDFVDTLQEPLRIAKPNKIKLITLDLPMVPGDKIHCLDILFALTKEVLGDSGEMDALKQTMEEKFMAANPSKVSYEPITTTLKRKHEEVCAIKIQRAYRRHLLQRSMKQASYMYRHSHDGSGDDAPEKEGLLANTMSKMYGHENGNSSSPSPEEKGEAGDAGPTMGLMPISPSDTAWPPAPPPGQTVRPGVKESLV

In general, IC50 refers to the concentration at which inhibition is half-maximal. Low readings indicate greater potency in that assay, high ones weaker potency in that assay. On to `Nc1nc2c(s1)CC(CNC(=O)c1cc(Br)c(Br)[nH]1)CC2` (stereo unspecified), for which the IC50 in test [1] was above 30 µM; in test [2] it was 23 µM; in test [3], above 30 µM; in test [4], 18 µM.
On to `Nc1nc2c(s1)C[C@@H](NC(=O)c1ccco1)CC2`, for which the concentration for half-maximal inhibition (IC50) in test [1] is above 30 µM; in test [2], above 30 µM; in test [3], above 30 µM; in test [4], 27 µM.
With `Nc1nc2c(s1)C[C@@H](NC(=O)[C@@H]1CCCN1)CC2`, the half-maximal inhibitory concentration (IC50) in test [1] is above 30 µM; in test [2], above 30 µM; in test [3], 25 µM; in test [4], above 30 µM.
For the molecule `CC(C)(C)OC(=O)N1CCC[C@H]1C(=O)NCC1CCc2nc(N)sc2C1` (stereo partly specified), the IC50 in test [1] was 20 µM; in test [2] it was above 30 µM; in test [3], above 30 µM; in test [4], 26 µM.
Consider `Nc1nc2c(s1)CC(CNC(=O)[C@@H]1CCCN1)CC2` (stereo partly specified), for which the 50% inhibitory concentration (IC50) in test [1], in test [2], in test [3] and in test [4] was above 30 µM each time.
As to `Nc1nc2c(s1)C[C@@H](NC(=O)c1ccc[nH]1)CC2`, the half-maximal inhibitory concentration (IC50) in test [1] is above 30 µM; in test [2], 21 µM; in test [3], above 30 µM; in test [4] it was above 30 µM.
On to `Cn1cccc1C(=O)N[C@H]1CCc2nc(N)sc2C1`, for which the IC50 was above 30 µM in test [1], above 30 µM in test [2], 16 µM in test [3] and 24 µM in test [4].
As to `Nc1nc2c(s1)CC(CNC(=O)c1cc3ccccc3[nH]1)CC2` (stereo unspecified), the IC50 in test [1] was above 30 µM; in test [2], 23 µM; in test [3], 21 µM; in test [4], 16 µM.
For `Nc1nc2c(s1)C[C@@H](NC(=O)c1cc(Br)c[nH]1)CC2` the same measures were 21 µM, 18 µM, above 30 µM and 26 µM.
`Nc1nc2c(s1)CC(CNC(=O)c1ccc[nH]1)CC2` (stereo unspecified): the half-inhibitory concentration (IC50) was 21 µM in test [1], 20 µM in test [2], above 30 µM in test [3] and 28 µM in test [4].
For `Nc1nc2c(s1)C[C@@H](NC(=O)c1cc(Br)c(Br)[nH]1)CC2` the same measures were above 30 µM, 16 µM, 15 µM and 26 µM.
For `Nc1nc2c(s1)C[C@@H](NC(=O)c1cc3ccccc3[nH]1)CC2` the same measures were above 30 µM, 29 µM, 16 µM and above 30 µM.
On to `CC(C)(C)OC(=O)N1CCC[C@H]1C(=O)N[C@H]1CCc2nc(N)sc2C1`, for which the IC50 is above 30 µM in test [1], above 30 µM in test [2], 8 µM in test [3] and above 30 µM in test [4].
For the molecule `Nc1nc2c(s1)C[C@@H](NCc1ccc[nH]1)CC2`, the IC50 in test [1] was above 30 µM; in test [2] it was 21 µM; in test [3], 30 µM; in test [4], 25 µM.

The values are drawn from ChEMBL document CHEMBL3085695, “Novel state-dependent voltage-gated sodium channel modulators, based on marine alkaloids from Agelas sponges” (Eur J Med Chem, 2013).
